The text below walks through data of patent publication US7553837B2, “Phenylazole compounds production process and antioxidants” (Nippon Soda Co., Ltd., priority 2003, dated 2009).

A value given as a limit tells only on which side of the number the result lay.

Data set [1] concerns lipid peroxidation activity in a rat brain homogenate. The experiment in a line: In vitro lipid peroxidation inhibition (rat brain homogenate, thiobarbituric acid process). The format is biochemical. To be noted: read-out: In vitro lipid peroxidation inhibition 50% inhibitory concentration (IC50 μM), 500 μM cysteine, 5 μM sulfuric acid monobasic iron, 100 mM KCl, 37° C. for 30 minutes. Here is the method:
(§1) An in vitro lipid peroxidation inhibition of the compounds of the present invention was evaluated by measuring a lipid peroxidation activity in a rat brain homogenate according to a process of Malvy, c., et al., Biochemical and Biophysical Research Communications, 1980, Vol. 95, p. 734-737. That is, a rat brain was extracted and a 5-fold amount of an aqueous phosphoric acid buffered saline solution (pH 7.4) (hereinafter abbreviated to PBS) was added to the brain under ice cooling, followed by homogenization using a Teflon homogenizer and further centrifugation at 10,000 g for 20 minutes to prepare a brain homogenate as a supernatant. To the brain homogenate thus prepared, 500 μM cysteine, 5 μM sulfuric acid monobasic iron and 100 mM KCl were added, followed by incubation at 37° C. for 30 minutes. Malondialdehyde produced by the […] of lipid peroxidation was measured by a thiobarbituric acid process.

Data set [2] has as its system lipid peroxidation activity of each tissue homogenate (brain, heart and kidney). The experiment in a line: Tissue migration properties: ex vivo lipid peroxidation inhibition in brain, heart and kidney homogenates. To be noted: SD male rats, 100 mg/kg intraperitoneally, 30 minutes after administration. Here is the method: as §1
Tissue migration properties of the compounds of the present invention were evaluated by measuring an ex vivo lipid peroxidation inhibition. A solution or suspension prepared by dissolving or suspending each of test compounds in an aqueous physiological saline solution or a 1% poly oxy ethylene hydrogenated castor oil (NIKKOL HCO-60, manufactured by Nikko Chemicals Co., Ltd.) physiological saline solution was intraperitoneally administered to SD male rats (one group: 3 rats, 6 weeks old) (available from Nippon SLC Co., Ltd.) at a dose of 100 mg/kg. 30 Minutes after administration, rats were bled to death by cutting the carotid artery and then the brain, heart and kidney were extracted. A lipid peroxidation activity of each tissue homogenate was measured by the process described in Example 18. An inhibition ratio in each tissue of the compounds of the present invention was determined from the amount of lipid peroxidation produced of a control group (physiological saline administration group) and a test compound administration group.

Another data set deals with T1, 5-lipoxygenase (5-LO) (Homo sapiens, UniProt P09917).
T1 construct: human peripheral blood mononuclear cells and each of test compounds dissolved in DMSO (final concentration: 1%) were preincubated; endogenous in cells; host or cells: human peripheral blood mononuclear cells
T1 sequence (P09917 1-674): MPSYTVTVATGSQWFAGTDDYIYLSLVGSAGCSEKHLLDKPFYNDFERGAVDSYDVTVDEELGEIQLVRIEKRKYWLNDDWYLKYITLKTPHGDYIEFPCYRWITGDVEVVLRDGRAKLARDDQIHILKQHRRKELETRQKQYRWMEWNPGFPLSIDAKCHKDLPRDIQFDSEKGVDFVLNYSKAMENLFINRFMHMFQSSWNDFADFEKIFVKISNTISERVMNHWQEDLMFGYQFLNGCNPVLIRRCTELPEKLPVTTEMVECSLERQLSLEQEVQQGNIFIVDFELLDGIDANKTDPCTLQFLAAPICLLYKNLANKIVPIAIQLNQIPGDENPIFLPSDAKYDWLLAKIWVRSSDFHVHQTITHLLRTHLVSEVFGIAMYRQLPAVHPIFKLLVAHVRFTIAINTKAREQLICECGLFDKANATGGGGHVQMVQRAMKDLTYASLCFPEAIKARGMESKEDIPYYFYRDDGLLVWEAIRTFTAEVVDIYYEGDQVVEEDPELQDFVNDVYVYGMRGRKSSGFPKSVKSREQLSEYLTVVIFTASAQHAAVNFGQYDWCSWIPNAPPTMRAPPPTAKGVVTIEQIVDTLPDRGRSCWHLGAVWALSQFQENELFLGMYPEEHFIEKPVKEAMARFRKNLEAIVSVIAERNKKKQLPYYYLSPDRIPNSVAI
As to the kind of experiment: 5-lipoxygenase (5-LO) inhibitory activity, leukotriene B4 production in human peripheral blood mononuclear cells. The following applies: human peripheral blood mononuclear cells, A23187, leukotriene B4 production. Type of data set: cell-based. Here is the method: A 5-LO inhibitory activity was measured by a partially modified process of a process of Carter et al. (Carter G. W, et al, J. Pharmacol. Exp. Ther.: 256, 929-37, 1991). That is, human peripheral blood mononuclear cells and each of test compounds dissolved in DMSO (final concentration: 1%) were preincubated (37° C., 15 minutes) in a Hanks' balanced salt solution and 30 μM A23187 was further added, followed by incubation (37° C., 30 minutes). The amount of leukotriene B4 produced as a result of incubation was determined by enzyme immunoassay and a 50% production inhibitory concentration (μM) against 5-LO of each test compound was calculated.

Data set [3] in a line: Acute oral toxicity, single oral dose, mortality rate after 7 days. To be noted: mouse, in vivo, male mice, observed for 7 days. The procedure:
A single dose of each of the compounds of the present invention was orally administered to male mice. After observing for 7 days, a mortality rate was determined.

Broadly, the LD50 is the dose expected to kill half of the subjects tested. Low values mean a more toxic substance, high ones a less toxic substance. As to `Cc1c(C)c2c(c(C)c1N)CC(C)(CN1CCN(c3cccc(-n4ccnc4)c3)CC1)O2` (stereo not drawn) [Compound B-1-18], the IC50 is 0.25 µM in data set [1] and 2550 nM against 5-lipoxygenase (5-LO). Further, in data set [2] (brain homogenate), the “Ex vivo lipid peroxidation inhibition inhibition ratio (%) Brain” value came out at 77%. Moreover, the “Ex vivo lipid peroxidation inhibition inhibition ratio (%) Heart” value in data set [2] (heart homogenate) was 88%. In data set [2] (kidney homogenate), the “Ex vivo lipid peroxidation inhibition inhibition ratio (%) Kidney” value was determined as 89%. Further, the LD50 at 7 days in data set [3] was more than 1000 mg/kg.
